According to patent publication US20210214758A1, “METHODS AND TOOLS FOR DETERMINING CLONAL RELATEDNESS AND PREDICTING CLONAL TRAITS” (priority 2018, published 2021):

System: Klebsiella isolates
Assay: Antibiotic susceptibility of Klebsiella clinical isolates per 7-SNP clonotype (Lookup Table 1; disk diffusion)
Format: cell-based, Klebsiella spp.
Experimental: In further embodiments, the Lookup Table is Lookup Table 1. The information contained in Lookup Table 1 below was obtained from urine specimens from patients with Klebsiella infections from several clinics within different regions of the United States. CT=clonotypes determined using a 7-SNP combination: phoE54; rpoB130; infB279; mdh315; phoE336; phoE354; and mdh429.
Next, antibiotic resistance was determined for all 387 Klebsiella isolates in the discovery set. Antibiotic testing was carried out according to the standard disk diffusion method as described in the Clinical and Laboratory Standards Institute (M100 Performance Standards for Antimicrobial Susceptibility Testing, 27th Edition, 2017). […] Since almost all Klebsiella isolates are known to be resistant to AMP and sensitive to IMI, TET is not used for treatment of urinary tract infections, and ESBL production is partially reflected in resistance to CTR, these antibiotics were not included for further analysis.
To aid in clinical decision-making and to translate clonotype information to treatment selection, Lookup Table 1 was generated. […] The information contained in Lookup Table 1 was obtained from urine specimens from patients with Klebsiella infections from several clinics within different regions of the United States. Indications of allowance or non-recommendation were determined based on a 20% resistance threshold to the indicated antibiotic; i.e., the antibiotic is recommended when more than 80% of the tested isolates within the indicated clonotype were susceptible to the indicated antibiotic, and was cautioned against when less than 80% of the isolates were susceptible to the antibiotic.

CN(C)[C@@H]1C(O)=C(C(N)=O)C(=O)[C@@]2(O)C(O)=C3C(=O)c4c(O)cccc4[C@@](C)(O)[C@H]3C[C@@H]12 [TET, tetracycline]
susceptibility, % (CT 000): 93% | susceptibility, % (CT 001): 0% | susceptibility, % (CT 010): 67% | susceptibility, % (CT 011): 73% | susceptibility, % (CT 031): 67% | susceptibility, % (CT 040): 50% | susceptibility, % (CT 050): 76% | susceptibility, % (CT 051): 85% | susceptibility, % (CT 071): 80% | susceptibility, % (CT 100): 100% | susceptibility, % (CT 110): 100% | susceptibility, % (CT 111): 90% | susceptibility, % (CT 130): 88% | susceptibility, % (CT 131): 52% | susceptibility, % (CT 141): 100% | susceptibility, % (CT 150): 80% | susceptibility, % (CT 151): 75% | susceptibility, % (CT 160): 100% | susceptibility, % (CT 170): 91% | susceptibility, % (CT 171): 81% | susceptibility, % (CT 200): 83% | susceptibility, % (CT 201): 83% | susceptibility, % (CT 210): 76% | susceptibility, % (CT 211): 88% | susceptibility, % (CT 230): 0% | susceptibility, % (CT 231): 100% | susceptibility, % (CT 240): 100% | susceptibility, % (CT 241): 100% | susceptibility, % (CT 250): 85% | susceptibility, % (CT 251): 83% | susceptibility, % (CT 271): 79% | susceptibility, % (CT 300): 0% | susceptibility, % (CT 301): 88% | susceptibility, % (CT 310): 93% | susceptibility, % (CT 311): 80% | susceptibility, % (CT 330): 80% | susceptibility, % (CT 331): 75% | susceptibility, % (CT 350): 83% | susceptibility, % (CT 351): 86% | susceptibility, % (CT 370): 75% | susceptibility, % (CT 371): 100% | susceptibility, % (CT 411): 100% | susceptibility, % (CT 450): 83% | susceptibility, % (CT 451): 100% | susceptibility, % (CT 510): 100% | susceptibility, % (CT 511): 100% | susceptibility, % (CT 530): 75% | susceptibility, % (CT 531): 100% | susceptibility, % (CT 550): 75% | susceptibility, % (CT 551): 93% | susceptibility, % (CT 570): 75% | susceptibility, % (CT 571): 100% | susceptibility, % (CT 611): 67% | susceptibility, % (CT 630): 100% | susceptibility, % (CT 650): 83% | susceptibility, % (CT 651): 92% | susceptibility, % (CT 670): 100% | susceptibility, % (CT 710): 67% | susceptibility, % (CT 730): 79% | susceptibility, % (CT 731): 85% | susceptibility, % (CT 750): 95% | susceptibility, % (CT 751): 100% | susceptibility, % (CT 771): 100% | susceptibility, % (CT Any Klebsiella spp.): 82%

C[C@@H](O)[C@H]1C(=O)N2C(C(=O)O)=C(SCCN=CN)C[C@H]12 [IMI, imipenem]
susceptibility, % (CT 000): 100% | susceptibility, % (CT 001): 100% | susceptibility, % (CT 010): 100% | susceptibility, % (CT 011): 100% | susceptibility, % (CT 031): 67% | susceptibility, % (CT 040): 75% | susceptibility, % (CT 050): 100% | susceptibility, % (CT 051): 100% | susceptibility, % (CT 071): 100% | susceptibility, % (CT 100): 100% | susceptibility, % (CT 110): 100% | susceptibility, % (CT 111): 100% | susceptibility, % (CT 130): 100% | susceptibility, % (CT 131): 98% | susceptibility, % (CT 141): 100% | susceptibility, % (CT 150): 99% | susceptibility, % (CT 151): 100% | susceptibility, % (CT 160): 100% | susceptibility, % (CT 170): 96% | susceptibility, % (CT 171): 97% | susceptibility, % (CT 200): 100% | susceptibility, % (CT 201): 100% | susceptibility, % (CT 210): 100% | susceptibility, % (CT 211): 100% | susceptibility, % (CT 230): 100% | susceptibility, % (CT 231): 100% | susceptibility, % (CT 240): 100% | susceptibility, % (CT 241): 100% | susceptibility, % (CT 250): 100% | susceptibility, % (CT 251): 100% | susceptibility, % (CT 271): 100% | susceptibility, % (CT 300): 100% | susceptibility, % (CT 301): 100% | susceptibility, % (CT 310): 100% | susceptibility, % (CT 311): 100% | susceptibility, % (CT 330): 100% | susceptibility, % (CT 331): 100% | susceptibility, % (CT 350): 100% | susceptibility, % (CT 351): 100% | susceptibility, % (CT 370): 100% | susceptibility, % (CT 371): 100% | susceptibility, % (CT 411): 100% | susceptibility, % (CT 450): 100% | susceptibility, % (CT 451): 100% | susceptibility, % (CT 510): 100% | susceptibility, % (CT 511): 100% | susceptibility, % (CT 530): 100% | susceptibility, % (CT 531): 100% | susceptibility, % (CT 550): 98% | susceptibility, % (CT 551): 75% | susceptibility, % (CT 570): 100% | susceptibility, % (CT 571): 100% | susceptibility, % (CT 611): 100% | susceptibility, % (CT 630): 100% | susceptibility, % (CT 650): 100% | susceptibility, % (CT 651): 100% | susceptibility, % (CT 670): 100% | susceptibility, % (CT 710): 100% | susceptibility, % (CT 730): 98% | susceptibility, % (CT 731): 100% | susceptibility, % (CT 750): 100% | susceptibility, % (CT 751): 100% | susceptibility, % (CT 771): 100% | susceptibility, % (CT Any Klebsiella spp.): 99%
